These results are taken from US10183021B2, “sGC stimulators” (Ironwood Pharmaceuticals, Inc., priority 2013, dated 2019).

Molecules are shown by their SMILES. Like-named read-outs stand apart in the source and are kept apart here.

This experiment has as its target soluble guanylate cyclase (sGC) (Homo sapiens (Human), UniProt Q02108+Q02153). Briefly: sGC-HEK-cGMP assay with SNP incubation, LC/MS detection (Example 2A). It is filed as cell-based. To be noted: HEK293 cells, 10 μM SNP, LC/MS detection; for Emax: 100% = BAY 41-2272 at 10 μM, read-out: HEK assay Emax - unconstrained (%). How it is done:
Human embryonic kidney cells (HEK293), endogenously expressing soluble guanylate cyclase (sGC), were used to evaluate the activity of test compounds. Compounds stimulating the sGC receptor should cause an increase in the intracellular concentration of cGMP. HEK 293 cells were seeded in Dulbecco's Modification of Eagle's Medium supplemented with fetal bovine serum (10% final) and L-glutamine (2 mM final) in a 200 L volume at a density of 1×10^5 cells/well in a poly-D-lysine coated 96 well flat bottom plate and grown overnight at 37° C. Medium was aspirated and cells were washed with 1× Hank's Buffered Saline Salt Solution (200 μL). Cells were then incubated for 15 minutes at 37° C. with 200 μL of a 0.5 mM 3-isobutyl-1-methylxanthine (IBMX) solution. Test article and sodium nitroprusside solutions (x μM concentration for test article solution and 10 μM concentration for SNP solution; wherein x is one of the following concentrations: 30 μM, 10 μM, 3 μM, 1 μM, 0.3 μM, 0.1 μM, 0.03 μM, 0.01 μM, 0.003 μM, 0.001 μM, 0.0003 μM or 0.0001 μM) were then added to the assay mixture (2 μL each) and the resulting mixture incubated at 37° C. for 10 minutes. After the 10 minute incubation, the assay mixture was aspirated and 0.1M HCl (200 μL) was added to the cells. The plate was incubated at 4° C. for 30 minutes in the 0.1M HCl to stop the reaction and lyse the cells. The plates were then centrifuged at 1,200 g for 5 minutes at room temperature. Supernatants were collected and transferred to a new flat bottom 96 well plate for analysis by HPLC-MS. Vehicle controls were carried out using DMSO (1%) solutions. A known sGC stimulator, BAY 41-2272, was used as the positive control. Samples were diluted with an equal volume of 1 M Ammonium Acetate (pH 7) to neutralize samples for better chromatography. A 2× cGMP standard solution was prepared in 0.1 M HCl and then diluted with an equal volume of 1 M Ammonium Acetate, with the following final concentrations in nM: 1024, 512, 256, 128, 64, 32, 16, 8, 4, 2, 1. cGMP concentrations in the test plates were determined from each sample using the LC/MS conditions shown in Table 2 below and the calculated cGMP standard curve. EC50 values were calculated from concentration-response curves generated with GraphPad Prism Software. Data were normalized to a high control using the following equation: 100*(Sample−Low Control)/(High Control−Low Control), where the low control is the average of 6 samples treated with 1% DMSO, and the high control is the average of 8-12 samples treated with 10 uM BAY 41-2272. Data were fit using a non-linear regression, sigmoidal dose response, 3 parameter fits.

[1] abbreviates: top of curve fitted to 100%, read-out: HEK assay EC50 - constrained.
Setting [2] is: top of curve not fitted to 100%, read-out: HEK assay EC50 - unconstrained.

Chain of soluble guanylate cyclase (sGC) (Q02153 whole entry): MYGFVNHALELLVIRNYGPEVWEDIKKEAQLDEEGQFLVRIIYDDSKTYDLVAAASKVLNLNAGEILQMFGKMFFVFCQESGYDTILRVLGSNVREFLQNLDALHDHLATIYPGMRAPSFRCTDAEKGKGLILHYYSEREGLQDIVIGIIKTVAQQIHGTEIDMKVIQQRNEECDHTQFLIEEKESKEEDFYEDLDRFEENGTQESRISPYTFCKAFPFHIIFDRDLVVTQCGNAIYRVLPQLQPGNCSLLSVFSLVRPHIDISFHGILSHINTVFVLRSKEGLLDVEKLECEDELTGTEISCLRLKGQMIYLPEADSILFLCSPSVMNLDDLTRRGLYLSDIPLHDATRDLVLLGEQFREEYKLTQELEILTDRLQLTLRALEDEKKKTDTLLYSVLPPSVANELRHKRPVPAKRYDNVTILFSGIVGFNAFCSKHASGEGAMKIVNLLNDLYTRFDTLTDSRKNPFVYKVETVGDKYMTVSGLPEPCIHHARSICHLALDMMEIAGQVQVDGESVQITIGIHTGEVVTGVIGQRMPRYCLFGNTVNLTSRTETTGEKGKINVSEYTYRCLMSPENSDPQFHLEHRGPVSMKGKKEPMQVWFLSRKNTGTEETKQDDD
Chain of soluble guanylate cyclase (sGC) (Q02108 whole entry): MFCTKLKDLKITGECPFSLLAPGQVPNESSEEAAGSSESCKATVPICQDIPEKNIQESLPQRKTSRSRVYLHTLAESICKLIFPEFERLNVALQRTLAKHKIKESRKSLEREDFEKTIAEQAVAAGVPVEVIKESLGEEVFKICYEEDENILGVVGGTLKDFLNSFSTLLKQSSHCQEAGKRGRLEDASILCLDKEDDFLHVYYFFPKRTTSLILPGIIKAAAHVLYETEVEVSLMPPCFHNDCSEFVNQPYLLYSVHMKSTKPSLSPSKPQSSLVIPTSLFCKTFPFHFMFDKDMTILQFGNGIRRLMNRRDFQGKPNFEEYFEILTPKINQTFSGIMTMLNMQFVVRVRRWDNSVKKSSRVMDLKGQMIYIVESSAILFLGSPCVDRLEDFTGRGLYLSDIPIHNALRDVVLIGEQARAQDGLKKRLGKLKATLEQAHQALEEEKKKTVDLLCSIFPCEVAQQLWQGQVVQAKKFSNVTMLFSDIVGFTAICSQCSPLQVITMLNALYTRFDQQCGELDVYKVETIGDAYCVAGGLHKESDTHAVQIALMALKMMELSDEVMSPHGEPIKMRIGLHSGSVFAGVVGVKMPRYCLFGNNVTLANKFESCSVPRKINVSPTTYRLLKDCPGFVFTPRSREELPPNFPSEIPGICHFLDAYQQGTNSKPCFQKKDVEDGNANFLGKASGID

Consider `O=C(O)[C@@H](Cc1ccc(O)cc1)Nc1nc(-c2cc(-c3ccon3)n(Cc3ccccc3F)n2)ncc1F` [Compound I-165], for which, under setting [1], the EC50 was > 10000 nM.

`CCOC(=O)CN(Cc1ccccc1)c1nc(-c2cc(-c3ccon3)n(Cc3ccccc3F)n2)ncc1F` [Compound I-166]: the Emax is 40 to 60%. In addition, the EC50 under setting [2] fell in the range of 100 to 500 nM. With `CCOC(=O)CN(C)c1nc(-c2cc(-c3ccon3)n(Cc3ccccc3F)n2)ncc1F` [Compound I-167], the Emax lay within 80 to 100%. Moreover, under setting [2], the EC50 lay within 1 to 100 nM. `O=C(O)CN(Cc1ccccc1)c1nc(-c2cc(-c3ccon3)n(Cc3ccccc3F)n2)ncc1F` [Compound I-168]: the Emax lay in the range of 60 to 80%. The EC50 under setting [2] is 100 to 500 nM. The like results for `CN(CCC(=O)O)c1nc(-c2cc(-c3ccon3)n(Cc3ccccc3F)n2)ncc1F` [Compound I-169] were, in that order, 60 to 80% and 100 to 500 nM. As to `CC(CN(C)c1nc(-c2cc(-c3ccon3)n(Cc3ccccc3F)n2)ncc1F)C(=O)O` (stereo not shown) [Compound I-170], the Emax lay within 60 to 80%. Further, the EC50 under setting [2] was in the range of 100 to 500 nM. Consider `CC(C)[C@H](CNc1nc(-c2cc(-c3ccon3)n(Cc3ccccc3F)n2)ncc1F)C(=O)O` [Compound I-171], for which the Emax is 60 to 80%. Moreover, under setting [2], the 50% effective concentration (EC50) lay in the range of 1 to 100 nM. In the case of `COc1nc(-c2cc(-c3ccon3)n(Cc3ccccc3F)n2)nc(N2CCOCC2)c1F` [Compound I-172], under setting [1], the EC50 was > 10000 nM.

On to `CC(C)[C@@H](CNc1nc(-c2cc(-c3ccon3)n(Cc3ccccc3F)n2)ncc1F)C(=O)O` [Compound I-173], for which the Emax lay within 60 to 80%. The EC50 under setting [2] lay within 100 to 500 nM. With `O=C(O)CCNc1nc(-c2cc(-c3ccon3)n(Cc3ccccc3F)n2)ncc1F` [Compound I-174], the Emax fell in the range of 60 to 80%. Further, the EC50 under setting [2] is 500 to 1000 nM. Take `CS(=O)(=O)C1CCN(c2nc(-c3cc(-c4ccon4)n(Cc4ccccc4F)n3)ncc2F)CC1` [Compound I-175]: the Emax was in the range of 100 to 120%. The EC50 under setting [2] was 1 to 100 nM.

As to `CN(CC(=O)O)c1nc(-c2cc(-c3ccon3)n(Cc3ccccc3F)n2)ncc1F` [Compound I-176], the Emax was in the range of 40 to 60%. The EC50 under setting [2] lay in the range of 1000 to 5000 nM. The like results for `CC(=O)NS(=O)(=O)N1CCN(c2nc(-c3cc(-c4ccon4)n(Cc4ccccc4F)n3)ncc2F)CC1` [Compound I-177] were, in that order, 60 to 80% and 100 to 500 nM.

For the compound `CS(=O)(=O)CCC(Nc1nc(-c2cc(-c3ccon3)n(Cc3ccccc3F)n2)ncc1F)C(=O)O` (stereo not shown) [Compound I-178], the maximal response (Emax) was in the range of 40 to 60%. Under setting [2], the EC50 lay within 5000 to 10000 nM.

`O=C(O)[C@H]1CC[C@@H](Nc2nc(-c3cc(-c4ccon4)n(Cc4ccccc4F)n3)ncc2F)C1` [Compound I-179]: the Emax lay in the range of 80 to 100%. Besides, the EC50 under setting [2] is 100 to 500 nM. The like results for `O=C(O)C(CC(F)(F)F)Nc1nc(-c2cc(-c3ccon3)n(Cc3ccccc3F)n2)ncc1F` (stereo not shown) [Compound I-180] were, in that order, 80 to 100% and 1000 to 5000 nM. On to `CC(C)[C@@H](CC(=O)O)Nc1nc(-c2cc(-c3ccon3)n(Cc3ccccc3F)n2)ncc1F` [Compound I-181], for which the Emax was 100 to 120%. Also, under setting [2], the EC50 was 500 to 1000 nM. On to `CC(C)[C@H](CC(=O)O)Nc1nc(-c2cc(-c3ccon3)n(Cc3ccccc3F)n2)ncc1F` [Compound I-182], for which the Emax was 80 to 100%. Besides, the EC50 under setting [2] was 1 to 100 nM.

Turning to `CC(C)(C)OC(=O)N1CCCN1c1nc(-c2cc(-c3ccon3)n(Cc3ccccc3F)n2)ncc1F` [Compound I-183], the Emax was in the range of 60 to 80%. Also, under setting [2], the EC50 lay in the range of 100 to 500 nM. The like results for `CC(C)(C)OC(=O)N1CCN(c2nc(-c3cc(-c4ccon4)n(Cc4ccccc4F)n3)ncc2F)C(CO)C1` (stereo not shown) [Compound I-184] were, in that order, 80 to 100% and 500 to 1000 nM. With `CCC1(C(=O)O)CCN(c2nc(-c3cc(-c4ccon4)n(Cc4ccccc4F)n3)ncc2F)CC1` [Compound I-189], the Emax is 60 to 80%. For the same compound, the EC50 under setting [2] lay in the range of 100 to 500 nM.
